Measurements reported in PMC13064811, “The Role of Disulfide Bonds in the GluN1 Subunit in the Early Trafficking and Functional Properties of GluN1/GluN2 and GluN1/GluN3 NMDA Receptors” (The Journal of Neuroscience, 2026).

What was measured:
[1] = tested on: GluN1-C79S-C308S/GluN2A receptors; details: cited from earlier work
[2] = tested on: YFP-hGluN1/hGluN2A receptors; assay type: cell-based, rat
[3] = tested on: YFP-hGluN1/hGluN2B receptors; assay type: cell-based, rat
[4] = tested on: YFP-GluN1-1a/GluN3A
[5] = biological target: GluN1-C744Y/GluN2A receptors; details: read-out: EC50 value for glycine; cited from earlier work
[6] = tested on: GluN1-C455S/GluN2B; details: read-out: EC50 glycine; cited from earlier work
[7] = biological target: YFP-hGluN1-1a-C744Y/hGluN2B (Homo sapiens, UniProt Q05586+Q13224, C744Y); assay type: cell-based
[8] = biological target: YFP-hGluN1-1a/hGluN2B (Homo sapiens, UniProt Q05586+Q13224); assay type: cell-based
[9] = tested on: YFP-GluN1-1a-C744S-C798S/GluN3A
[10] = biological target: YFP-hGluN1-1a/hGluN2A (Homo sapiens, UniProt Q05586+Q12879); assay type: cell-based
[11] = biological target: YFP-hGluN1-1a-C744Y/hGluN2A (Homo sapiens, UniProt Q05586+Q12879, C744Y); assay type: cell-based
[12] = tested on: YFP-hGluN1-1a-C744Y/hGluN3A
[13] = tested on: GluN1-C436S/GluN2B; details: read-out: EC50 glycine; cited from earlier work
[14] = tested on: GluN1-C454S/GluN2B; details: read-out: EC50 glycine; cited from earlier work
[15] = tested on: YFP-hGluN1-1a/hGluN3A
[16] = tested on: hippocampal neurons expressing YFP-hGluN1-1a or YFP-hGluN1-1a-C744Y subunits; assay: NMDA-induced excitotoxicity assay; assay type: cell-based, rat; details: 10 µM memantine; death induced by 30 µM NMDA and 10 µM glycine
[17] = biological target: T1, hGluN1-4a/hGluN2B (Homo sapiens, UniProt Q05586+Q13224); design: method as in Konecny et al., 2024; details: ref Konecny et al., 2024, cited from earlier work
T1 construct: GluN1-4a (hGluN1-4a; NP_000823.4); GluN2B (hGluN2B; NP_000825.2); expressed in transfected cells; host or cells: HEK293T

[18] = biological target: T2, hGluN1-4a/hGluN2A (Homo sapiens, UniProt Q05586+Q12879); assay type: cell-based
T2 construct: GluN1-4a (hGluN1-4a; NP_000823.4); GluN2A (hGluN2A; NP_001127879.1); expressed in transfected cells; host or cells: HEK293T

[19] = biological target: T3, hGluN1-4a-C744Y/hGluN2B (Homo sapiens, UniProt Q05586+Q13224, C744Y); assay type: cell-based
T3 construct: GluN1-4a (hGluN1-4a; NP_000823.4); GluN2B (hGluN2B; NP_000825.2); expressed in transfected cells; host or cells: HEK293T

[20] = biological target: T4, hGluN1-4a-C744Y/hGluN2A (Homo sapiens, UniProt Q05586+Q12879, C744Y); assay type: cell-based
T4 construct: GluN1-4a (hGluN1-4a; NP_000823.4); GluN2A (hGluN2A; NP_001127879.1); expressed in transfected cells; host or cells: HEK293T

[21] = 1 mM L-glutamate and 100 µM glycine, −60 mV
[22] = offset of inhibition, 1 mM glutamate and 100 µM glycine
[23] = onset of inhibition, 1 mM glutamate and 100 µM glycine

T2 sequence (Q12879 23-1464, other chains not shown): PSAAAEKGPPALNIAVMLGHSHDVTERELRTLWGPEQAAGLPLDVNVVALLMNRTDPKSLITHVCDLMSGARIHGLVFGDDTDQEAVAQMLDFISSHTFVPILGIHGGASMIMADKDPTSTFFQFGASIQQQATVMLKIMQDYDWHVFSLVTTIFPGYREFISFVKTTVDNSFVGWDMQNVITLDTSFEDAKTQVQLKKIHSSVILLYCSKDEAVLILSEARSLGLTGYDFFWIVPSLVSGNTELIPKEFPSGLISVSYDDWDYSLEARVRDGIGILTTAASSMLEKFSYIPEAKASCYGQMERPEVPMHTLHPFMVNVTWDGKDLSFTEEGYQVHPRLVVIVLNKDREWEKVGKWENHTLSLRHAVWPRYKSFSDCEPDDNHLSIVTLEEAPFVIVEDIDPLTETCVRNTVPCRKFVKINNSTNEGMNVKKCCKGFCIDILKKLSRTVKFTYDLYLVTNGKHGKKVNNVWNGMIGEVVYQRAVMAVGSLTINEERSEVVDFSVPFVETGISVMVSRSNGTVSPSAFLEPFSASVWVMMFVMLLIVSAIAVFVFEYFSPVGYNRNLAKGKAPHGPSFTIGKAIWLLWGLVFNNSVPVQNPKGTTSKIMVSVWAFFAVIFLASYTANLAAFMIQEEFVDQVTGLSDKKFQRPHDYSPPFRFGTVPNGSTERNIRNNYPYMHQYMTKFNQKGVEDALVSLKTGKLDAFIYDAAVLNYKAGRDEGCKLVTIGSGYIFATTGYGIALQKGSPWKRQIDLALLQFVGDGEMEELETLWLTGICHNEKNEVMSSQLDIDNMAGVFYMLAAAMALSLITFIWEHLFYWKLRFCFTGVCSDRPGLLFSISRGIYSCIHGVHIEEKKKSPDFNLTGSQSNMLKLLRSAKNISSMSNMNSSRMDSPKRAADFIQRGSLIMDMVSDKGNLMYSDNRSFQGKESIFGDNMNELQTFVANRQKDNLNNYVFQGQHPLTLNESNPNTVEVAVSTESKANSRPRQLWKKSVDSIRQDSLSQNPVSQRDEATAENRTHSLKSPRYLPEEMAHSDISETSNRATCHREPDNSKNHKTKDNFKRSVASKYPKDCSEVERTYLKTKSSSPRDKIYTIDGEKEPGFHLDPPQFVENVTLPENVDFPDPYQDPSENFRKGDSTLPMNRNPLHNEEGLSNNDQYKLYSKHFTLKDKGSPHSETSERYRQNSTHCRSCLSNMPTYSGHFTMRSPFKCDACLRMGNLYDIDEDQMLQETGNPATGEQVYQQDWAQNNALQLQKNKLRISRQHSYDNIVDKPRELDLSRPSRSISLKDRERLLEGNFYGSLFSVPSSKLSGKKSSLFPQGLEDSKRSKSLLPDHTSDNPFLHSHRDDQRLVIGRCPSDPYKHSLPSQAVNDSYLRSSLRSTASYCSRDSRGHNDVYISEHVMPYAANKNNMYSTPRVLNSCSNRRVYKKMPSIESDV
T4 sequence (Q12879 23-1464, other chains not shown): as above
T3 sequence (Q13224 27-1484, other chains not shown): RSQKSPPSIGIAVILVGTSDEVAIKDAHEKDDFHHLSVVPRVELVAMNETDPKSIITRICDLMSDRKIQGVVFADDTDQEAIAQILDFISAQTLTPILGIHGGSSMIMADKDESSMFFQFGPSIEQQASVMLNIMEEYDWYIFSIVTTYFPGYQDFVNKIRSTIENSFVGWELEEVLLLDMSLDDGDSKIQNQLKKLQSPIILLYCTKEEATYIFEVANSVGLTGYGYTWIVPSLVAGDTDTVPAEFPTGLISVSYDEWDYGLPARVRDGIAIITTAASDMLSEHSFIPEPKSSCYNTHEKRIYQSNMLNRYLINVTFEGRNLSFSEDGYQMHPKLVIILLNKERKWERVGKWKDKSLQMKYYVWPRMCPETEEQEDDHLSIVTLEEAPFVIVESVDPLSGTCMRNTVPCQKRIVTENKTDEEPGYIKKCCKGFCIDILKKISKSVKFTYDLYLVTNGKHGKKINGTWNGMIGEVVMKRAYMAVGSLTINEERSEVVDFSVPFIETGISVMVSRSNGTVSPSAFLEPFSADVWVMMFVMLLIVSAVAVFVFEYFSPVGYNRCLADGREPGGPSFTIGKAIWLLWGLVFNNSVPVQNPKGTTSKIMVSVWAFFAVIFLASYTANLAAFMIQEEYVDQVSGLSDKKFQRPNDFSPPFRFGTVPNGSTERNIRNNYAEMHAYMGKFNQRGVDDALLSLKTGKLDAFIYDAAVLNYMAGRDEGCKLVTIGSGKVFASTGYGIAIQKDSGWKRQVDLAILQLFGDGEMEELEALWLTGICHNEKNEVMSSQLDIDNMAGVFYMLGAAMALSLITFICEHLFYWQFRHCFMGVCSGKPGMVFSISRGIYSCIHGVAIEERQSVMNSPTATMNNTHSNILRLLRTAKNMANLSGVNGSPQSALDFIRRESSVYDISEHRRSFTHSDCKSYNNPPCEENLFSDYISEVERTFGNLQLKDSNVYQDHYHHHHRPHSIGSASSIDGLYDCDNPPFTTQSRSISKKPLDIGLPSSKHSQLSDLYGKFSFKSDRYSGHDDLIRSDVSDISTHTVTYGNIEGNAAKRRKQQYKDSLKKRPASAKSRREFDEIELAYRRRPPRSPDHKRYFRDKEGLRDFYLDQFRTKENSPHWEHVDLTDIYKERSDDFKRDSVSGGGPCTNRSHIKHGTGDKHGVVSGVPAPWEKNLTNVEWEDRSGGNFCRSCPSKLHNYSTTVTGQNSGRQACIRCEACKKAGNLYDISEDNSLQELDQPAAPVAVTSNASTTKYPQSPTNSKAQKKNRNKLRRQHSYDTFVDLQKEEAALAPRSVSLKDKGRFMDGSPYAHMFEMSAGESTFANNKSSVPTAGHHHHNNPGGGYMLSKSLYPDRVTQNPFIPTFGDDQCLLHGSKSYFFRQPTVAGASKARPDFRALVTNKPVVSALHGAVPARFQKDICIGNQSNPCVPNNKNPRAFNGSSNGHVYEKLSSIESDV

In the case of CN[C@H](CC(=O)O)C(=O)O [NMDA], the “increase of the EC50 value for NMDA” value [1] is given as roughly 25%.

In the case of NC1=N[C@H](O)[C@H]2[C@H]3O[C@]4(O)O[C@@H]([C@@H](O)[C@@]2(N1)[C@@H]4O)[C@]3(O)CO [TTX, tetrodotoxin], the relative surface expression [2] is reported as “no alterations in the relative surface expression levels”.

In the case of CN1CCc2cc3c(cc2[C@H]1[C@@H]1OC(=O)c2c1ccc1c2OCO1)OCO3 [bicuculline], the relative surface expression [2] is reported as “no alterations in the relative surface expression levels” and the relative surface expression [3] is reported as “increased relative surface expression”.

For NCC(=O)O [glycine], the “h (Hill coefficient), glycine” value [4] is listed as 1.26 ± 0.15, the EC50 ([4]; read-out: Glycine EC50) is listed as 52.3 ± 13 µM and the EC50 [5] is listed as 0.7 µM. The EC50 [6] was 0.25 µM, the “Glycine h (Hill coefficient)” value [7] was 0.80 ± 0.03 and the EC50 ([7]; read-out: Glycine EC50) was 0.59 ± 0.08 µM. The “Glycine h (Hill coefficient)” value [8] was 0.83 ± 0.06, the “h (Hill coefficient), glycine” value [9] was 0.88 ± 0.09 and the EC50 ([9]; read-out: Glycine EC50) was 213 ± 30.8 µM. For the same compound, the “Glycine h (Hill coefficient)” value [10] was 1.46 ± 0.07, the EC50 ([10]; read-out: Glycine EC50) was 2.91 ± 0.29 µM and the EC50 ([1]; read-out: EC50 value for glycine) was 2.62 µM. The “Glycine h (Hill coefficient)” value [11] was 1.47 ± 0.08, the EC50 ([11]; read-out: Glycine EC50) was 3.01 ± 0.41 µM and the “Glycine h (Hill coefficient)” value [12] was 0.75 ± 0.03. The EC50 ([12]; read-out: Glycine EC50) was 368 ± 51 µM, the EC50 [13] was 0.72 µM and the EC50 [14] was 0.73 µM. For the same compound, the “Glycine h (Hill coefficient)” value [15] was 0.61 ± 0.02 and the EC50 ([15]; read-out: Glycine EC50) was 70.5 ± 10.7 µM.

For CC12CC3CC(C)(C1)CC(N)(C3)C2 [memantine], the neuronal death [16] is listed as “reduced neuronal death”, the “h (Hill coefficient), memantine” value [17, 21] is listed as 1.04 ± 0.03 and the “τoff 1 μM memantine” value [17, 22] is listed as 758.93 ± 49.66 ms. For the same compound, the “τon 1 μM memantine” value [17, 23] was 708.99 ± 49.40 ms, the “h (Hill coefficient), memantine” value [18, 21] was 1.04 ± 0.06 and the “τoff 1 μM memantine” value [18, 22] was 510.08 ± 40.38 ms. For the same compound, the “τon 1 μM memantine” value [18, 23] was 440.47 ± 39.77 ms, the “h (Hill coefficient), memantine” value [19, 21] was 0.86 ± 0.05 and the “τoff 1 μM memantine” value [19, 22] was 811.87 ± 56.87 ms. The “τon 1 μM memantine” value [19, 23] was 519.40 ± 26.19 ms, the “h (Hill coefficient), memantine” value [20, 21] was 0.94 ± 0.06 and the “τoff 1 μM memantine” value [20, 22] was 458.37 ± 83.04 ms. For the same compound, the “τon 1 μM memantine” value [20, 23] was 292.14 ± 24.73 ms.
